Assay results reported in article PMC3853718 (Journal of Translational Medicine, 2013).

Assays:
[1] = test system: metabolically active sites of disease; experiment: FDG-PET/CT tumor metabolic activity (SUVmax); conditions: RP2D 12 mg/m^2, 10 evaluable subjects; responder = SUVmax decrease greater than 30%; 2-sided 95% CI: 0.3%, 44.5%
Description: Metabolic activity data were obtained for research use only and were not used for clinical management of subjects.

[2] = test system: Rb protein phosphorylation; experiment: Immunohistochemistry for phospho-Rb in skin biopsies; format: in vivo, human
Description: . The phosphorylation status of the Rb protein in the proliferative layer of skin and in the proliferating cells at the base of hair follicles was determined by IHC utilizing a rabbit anti-phospho-Rb antibody diluted to 0.83 μg/mL or 0.67 μg/mL. Immunohistochemistry staining was scored 0 (no staining relative to background), 1+ (weak staining), 2+ (moderate staining), or 3+ (strong staining); H-score was calculated as a measure of overall immunoreactivity in a given sample, using the following formula: H-score = (% of cells with 3+) × 3 + (% of cells with 2+) × 2 + (% of cells with 1+) × 1. Subjects were to be categorized as responders if no degree of staining was detected with the anti-phospho-Rb antibody.

## CCc1cnn2c(NCc3ccc[n+]([O-])c3)cc(N3CCCC[C@H]3CCO)nc12 [dinaciclib]
[1]
  PET/CT response rate: 10.0%
[2]; RP2D 12 mg/m^2, 11 subjects, skin biopsy 4 hours after treatment, before treatment 18.55
  mean phospho-Rb H score following treatment: 17.64
[2]; responder = complete loss of phospho-Rb staining
  response based on phospho-Rb staining: no subjects were deemed to have achieved a response
